ChEMBL document CHEMBL5365500, “Development and Antibacterial Properties of 4-[4-(Anilinomethyl)-3-phenylpyrazol-1-yl]benzoic Acid Derivatives as Fatty Acid Biosynthesis Inhibitors” (J Med Chem, 2023)
≈ marks a conversion by molar mass, not a printed value. Calls of active or inactive are those of the source. The calls are words filed in the database; no cut-off is given here.

Columns and labels:
Staphylococcus aureus [1] = assay: Antimicrobial activity against antibiotic-susceptible Staphylococcus aureus ATCC 25923 assessed as inhibition of biofilm formation on plastic coverslips at 0.5 times of MIC measured after 24 hrs by electron microscopy; format: functional, organism-based
Staphylococcus aureus [2] = assay: Antimicrobial activity against antibiotic-susceptible Staphylococcus aureus ATCC 25923 assessed as inhibition of biofilm formation after 24 hrs incubation by Real-time monitoring method; format: functional
Staphylococcus aureus [3] = assay: Antimicrobial activity against antibiotic-susceptible Staphylococcus aureus ATCC 25923 assessed as inhibition of biofilm formation by measuring prevention of turbidity after 24 hrs incubation by Real-time monitoring method; format: functional
Enterococcus faecalis [4] = assay: Antimicrobial activity against antibiotic-resistant Enterococcus faecalis ATCC 51299 assessed as inhibition of visible growth measured after 20 to 24 hrs incubation by CLSI method; format: functional; settings: time 20-24 hrs
Enterococcus faecium [5] = assay: Antimicrobial activity against antibiotic-resistant Enterococcus faecium ATCC 700221 assessed as inhibition of visible growth measured after 20 to 24 hrs incubation by CLSI method; format: functional; settings: time 20-24 hrs
Bacillus subtilis = assay: Antimicrobial activity against antibiotic-resistant Bacillus subtilis ATCC 6623 assessed as inhibition of visible growth measured after 20 to 24 hrs incubation by CLSI method; format: functional; settings: time 20-24 hrs
Staphylococcus aureus [6] = assay: Antimicrobial activity against Staphylococcus aureus ATCC 25923 assessed as inhibition of biofilm formation by measuring prevention of turbidity after 24 hrs incubation by Real-time monitoring method; format: functional
Staphylococcus aureus [7] = assay: Antimicrobial activity against Staphylococcus aureus ATCC 25923 assessed as eradication of biofilm measured after 24 hrs incubation by Calgary method; format: functional
Enterococcus faecium [8] = assay: Antimicrobial activity against Enterococcus faecium […] assessed as inhibition of biofilm formation after 24 hrs incubation by Real-time monitoring method; format: functional
Enterococcus faecalis [9] = assay: Antimicrobial activity against antibiotic-susceptible Enterococcus faecalis ATCC 29212 assessed as inhibition of biofilm formation by measuring prevention of turbidity after 24 hrs incubation by Real-time monitoring method; format: functional
Staphylococcus aureus [10] = assay: Antimicrobial activity against methicilline-resistant Staphylococcus aureus ATCC 700699 persisters assessed as bacterial killing at 32 time of MIC concentration measured for every 2 hrs upto 8 hrs by Persisters time course assay; format: functional, organism-based
Erythrocyte [11] = assay: Hemolytic activity in sheep red blood cells assessed as hemolysis at 16 to 32 ug/ml incubated for 30 mins relative to control; format: toxicity, cell-based, Ovis aries; settings: 0.5 h, dose 16-32 µg/ml
Staphylococcus aureus [12] = assay: In vivo antimicrobial activity against Staphylococcus aureus UAMS-1 infected in Caenorhabditis elegans AU37 nematodes assessed as viability of nematodes incubated for 5 days by susceptibility test; format: functional; settings: UAMS-1, 120 h, time 5 day
[13] = tested on: Panel NCI-60 (60 carcinoma cell lines); assay: Cytotoxicity against human panel NCI-60 (60 carcinoma cell lines)cells assessed as cell viability at 10 uM measured after 24 hrs by resazurin assay; format: functional, cell-based
Enterococcus faecalis [14] = assay: Antimicrobial activity against antibiotic-susceptible Enterococcus faecalis ATCC 29212 assessed as eradication of biofilm measured after 24 hrs incubation by Calgary method; format: functional
Staphylococcus aureus [15] = assay: Bactericidal activity in antibiotic-resistant Staphylococcus aureus ATCC 700699 assessed as reduction in viable cell count at 4 times of MIC measured upto 24 hrs by time kill assay; format: functional, organism-based
Staphylococcus aureus [16] = assay: Antimicrobial activity against clinical isolate Staphylococcus aureus Smu81 assessed as inhibition of growth measured after 20 to 24 hrs incubation by CLSI method; format: functional; settings: time 20-24 hrs
Staphylococcus aureus [17] = assay: In vivo antimicrobial activity against Staphylococcus aureus Newman infected in Caenorhabditis elegans AU37 nematodes assessed as viability of nematodes incubated for 5 days by susceptibility test; format: functional; settings: 120 h, time 5 day
Staphylococcus aureus [18] = assay: Antimicrobial activity against Staphylococcus aureus ATCC 25923 assessed as inhibition of visible growth measured after 20 to 24 hrs incubation by CLSI method; format: functional; settings: time 20-24 hrs
Staphylococcus aureus [19] = assay: Antimicrobial activity against antibiotic-resistant Staphylococcus aureus ATCC BAA-2312 assessed as inhibition of visible growth measured after 20 to 24 hrs incubation by CLSI method; format: functional; settings: time 20-24 hrs
Staphylococcus aureus [20] = assay: Antimicrobial activity against clinical isolate Staphylococcus aureus Smu21 assessed as inhibition of growth measured after 20 to 24 hrs incubation by CLSI method; format: functional; settings: time 20-24 hrs
Cell membrane [21] = assay: Induction of membrane permeability in Staphylococcus aureus ATCC 700699 assessed as increase in fluorescence at 8 times of MIC incubated for 15 mins measured for 1 hr by propidium iodide/real time fluorescence based flow cytometry; format: subcellular
Staphylococcus aureus [22] = assay: In vivo antimicrobial activity against Staphylococcus aureus USA300 infected in Caenorhabditis elegans AU37 nematodes assessed as viability of nematodes incubated for 5 days by susceptibility test; format: functional; settings: USA300, 120 h, time 5 day
Staphylococcus aureus [23] = assay: Antimicrobial activity against methicilline-resistant Staphylococcus aureus ATCC 700699 persisters assessed as reduction in initial persister concentration at 8 times of MIC concentration measured for 8 hrs by Persisters time course assay; format: functional
Staphylococcus aureus [24] = assay: Antimicrobial activity against clinical isolate Staphylococcus aureus Smu109 assessed as inhibition of growth measured after 20 to 24 hrs incubation by CLSI method; format: functional; settings: time 20-24 hrs
Staphylococcus aureus [25] = assay: Antimicrobial activity against clinical isolate Staphylococcus aureus Smu57 assessed as inhibition of growth measured after 20 to 24 hrs incubation by CLSI method; format: functional; settings: time 20-24 hrs
Enterococcus faecalis [26] = assay: Antimicrobial activity against Enterococcus faecalis ATCC 29212 assessed as inhibition of biofilm formation by measuring prevention of turbidity after 24 hrs incubation by Real-time monitoring method; format: functional
Cell membrane [27] = assay: Induction of membrane permeability in Staphylococcus aureus ATCC 700699 assessed as increase in fluorescence at 0.5 to 2 times of MIC incubated for 15 mins measured for 1 hr by propidium iodide/real time fluorescence based flow cytometry; format: subcellular; settings: time 75.0 min
Staphylococcus aureus [28] = assay: Antimicrobial activity against antibiotic-resistant Staphylococcus aureus ATCC 33592 assessed as inhibition of visible growth measured after 20 to 24 hrs incubation by CLSI method; format: functional; settings: time 20-24 hrs
Staphylococcus aureus [29] = assay: Antimicrobial activity against methicilline-resistant Staphylococcus aureus ATCC 700699 persisters assessed as reduction in initial persister concentration at 16 times of MIC concentration measured for 2 hrs by Persisters time course assay; format: functional, organism-based
Staphylococcus aureus [30] = assay: Antimicrobial activity against Staphylococcus aureus UAB159 assessed as inhibition of growth measured after 20 to 24 hrs incubation by CLSI method; format: functional; settings: time 20-24 hrs
Erythrocyte [31] = assay: Hemolytic activity in sheep red blood cells assessed as hemolysis at 64 ug/ml incubated for 30 mins relative to control; format: toxicity, cell-based, Ovis aries; settings: 0.5 h, at 64 µg/mL
Staphylococcus aureus [32] = assay: Antimicrobial activity against antibiotic-resistant Staphylococcus aureus ATCC 33591 assessed as inhibition of visible growth measured after 20 to 24 hrs incubation by CLSI method; format: functional; settings: time 20-24 hrs
Staphylococcus aureus [33] = assay: Antimicrobial activity against methicilline-resistant Staphylococcus aureus ATCC 700699 persisters assessed as reduction in initial persister concentration at 2 times of MIC concentration measured for 2 to 8 hrs by Persisters time course assay; format: functional, organism-based; settings: time 2-8 hrs
Staphylococcus aureus [34] = assay: Antimicrobial activity against clinical isolate Staphylococcus aureus Smu9 assessed as inhibition of growth measured after 20 to 24 hrs incubation by CLSI method; format: functional; settings: time 20-24 hrs
Staphylococcus aureus [35] = assay: Resistance development in methicillin-sensitive Staphylococcus aureus ATCC 25923 assessed as fold increase in MIC at 0.5 times of MIC measured at 4 to 6 th passages by multistep resistance assay; format: functional

In the case of `CN[C@H](CC(C)C)C(=O)N[C@H]1C(=O)N[C@@H](CC(N)=O)C(=O)N[C@H]2C(=O)N[C@H]3C(=O)N[C@H](C(=O)N[C@H](C(=O)O)c4cc(O)cc(O)c4-c4cc3ccc4O)[C@H](O)c3ccc(c(Cl)c3)Oc3cc2cc(c3O[C@@H]2O[C@H](CO)[C@@H](O)[C@H](O)[C@H]2O[C@H]2C[C@](C)(N)[C@H](O)[C@H](C)O2)Oc2ccc(cc2Cl)[C@H]1O` [VANCOMYCIN], the Activity (Staphylococcus aureus [1]) is reported as “Active”, the MBIC (Staphylococcus aureus [2]) is reported as greater than 16 µg/mL and the MBBC (Staphylococcus aureus [3]) is reported as greater than 16 µg/mL. The MIC (Enterococcus faecalis [4]) was greater than 32 µg/mL, the MIC (Enterococcus faecium [5]) was greater than 32 µg/mL and the MIC (Bacillus subtilis) was 0.25 µg/mL (≈ 0.173 µM). The MIC (Staphylococcus aureus [6]) was 8 µg/mL (≈ 5.52 µM), the MBEC (Staphylococcus aureus [7]) was greater than 32 µg/mL and the MBIC (Enterococcus faecium [8]) was greater than 16 µg/mL. For the same molecule, the MBBC (Enterococcus faecalis [9]) was greater than 16 µg/mL.

For `O=C(O)c1ccc(-n2cc(CNc3ccc(Br)c(C(F)(F)F)c3)c(-c3cccc(F)c3)n2)cc1`, the Activity (Staphylococcus aureus [10]) was “Active”, the Activity (Erythrocyte [11]) was “Non-Toxic” and the MIC (Staphylococcus aureus [12]) was 1 µg/mL (≈ 1.87 µM). The Activity [13] was “inactive”, the MBEC (Enterococcus faecalis [14]) was 2 µg/mL and the Activity (Staphylococcus aureus [15]) was “Active”. The MIC (Staphylococcus aureus [16]) was 4 µg/mL (≈ 7.49 µM), the MIC (Staphylococcus aureus [17]) was 1 µg/mL (≈ 1.87 µM) and the MIC (Staphylococcus aureus [18]) was 1 µg/mL (≈ 1.87 µM). For the same molecule, the MIC (Staphylococcus aureus [19]) was 1 µg/mL (≈ 1.87 µM), the MIC (Staphylococcus aureus [20]) was 4 µg/mL (≈ 7.49 µM) and the Activity (Cell membrane [21]) was “inactive”. For the same molecule, the MIC (Staphylococcus aureus [22]) was 1 µg/mL (≈ 1.87 µM), the “log(activity)” value (Staphylococcus aureus [23]) was 6 and the MIC (Bacillus subtilis) was 0.5 µg/mL (≈ 0.936 µM). It also gave an MIC (Staphylococcus aureus [6]) of 2 µg/mL (≈ 3.74 µM), an MIC (Staphylococcus aureus [24]) of 2 µg/mL (≈ 3.74 µM) and an MIC (Staphylococcus aureus [25]) of 2 µg/mL (≈ 3.74 µM). The MIC (Enterococcus faecalis [26]) was 8 µg/mL (≈ 15 µM), the Activity (Cell membrane [27]) was “inactive” and the MIC (Staphylococcus aureus [28]) was 0.5 µg/mL (≈ 0.936 µM). For the same molecule, the Activity (Staphylococcus aureus [29]) was “Active”, the MIC (Staphylococcus aureus [30]) was 4 µg/mL (≈ 7.49 µM) and the Activity (Erythrocyte [31]) was less than 10%. The MIC (Staphylococcus aureus [32]) was 0.5 µg/mL (≈ 0.936 µM), the MBIC (Enterococcus faecium [8]) was 8 µg/mL and the Activity (Staphylococcus aureus [33]) was “inactive”. For the same molecule, the MIC (Staphylococcus aureus [34]) was 4 µg/mL (≈ 7.49 µM) and the “fold change (FC)” value (Staphylococcus aureus [35]) was 2.
